Assay results as given in patent publication US20180208605A1, “Substituted Aza Compounds as IRAK-4 Inhibitors” (AURIGENE DISCOVERY TECHNOLOGIES LIMITED, priority 2015, published 2018).
Structures can show the parent of a compound that is named as a salt.

Target: T1, recombinant IRAK-4 kinase (Homo sapiens, UniProt Q9NWZ3)
T1 construct: purchased Millipore, USA
T1 sequence (Q9NWZ3 1-460): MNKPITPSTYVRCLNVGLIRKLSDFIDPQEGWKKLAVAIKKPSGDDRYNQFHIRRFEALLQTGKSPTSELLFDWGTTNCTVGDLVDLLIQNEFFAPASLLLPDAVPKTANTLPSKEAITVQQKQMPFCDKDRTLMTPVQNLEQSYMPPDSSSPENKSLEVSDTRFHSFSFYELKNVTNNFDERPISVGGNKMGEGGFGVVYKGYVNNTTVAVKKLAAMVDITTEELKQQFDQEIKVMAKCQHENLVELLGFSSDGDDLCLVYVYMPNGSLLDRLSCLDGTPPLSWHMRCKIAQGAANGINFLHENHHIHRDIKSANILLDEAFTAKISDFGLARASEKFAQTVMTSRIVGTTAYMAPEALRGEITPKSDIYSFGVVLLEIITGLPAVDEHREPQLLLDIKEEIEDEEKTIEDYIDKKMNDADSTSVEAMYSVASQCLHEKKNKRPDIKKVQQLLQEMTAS
Test: IRAK-4 Biochemical Assay (TR-FRET, percent inhibition)
Details: TR-FRET, 20 μM ATP, 100 nM Biotin Histone H3; for inhibition at 0.1 µM: read-out: % inhibition of IRAK-4 @0.1 μM, compound at 0.1 μM; for inhibition at 1 µM: read-out: % inhibition of IRAK-4 @ 1 μM, compound at 1 μM
How it was run: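 IRAK-4 pre-incubated with compound 30 min at room temperature in Tris-HCl pH 7.5 buffer with MgCl2, MnCl2 and DTT, then reacted 30 min with 100 nM biotin-histone H3 and 20 μM ATP. EDTA stop with Eu-anti-phospho-H3 (Ser10) and APC-streptavidin. Percent inhibition derived from the 665/615 nm emission ratio at 340 nm excitation.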

| Compound | inhibition at 0.1 µM [%] | inhibition at 1 µM [%] |
| --- | --- | --- |
| O=C(Nc1cc2sc(N3CCOCC3)nc2nc1N1CCCCC1)c1cccc(N2CCCC(CO)C2)n1 (stereo not drawn) [Example 78, 6-(3-(hydroxymethyl)piperidin-1-yl)-N-(2-morpholino-5-(piperidin-1-yl)thiazolo[4,5-b]pyridin-6-yl)picolinamide] | 99 | 96 |
| Cc1nc2nc(N3CCOCC3)sc2cc1NC(=O)c1cccc(N2CCC(O)C2)n1 (stereo not drawn) [Example 43, 6-(3-hydroxypyrrolidin-1-yl)-N-(5-methyl-2-morpholinothiazolo[4,5-b]pyridin-6-yl)picolinamide] | 50 | 92 |
| Nc1ccc(-c2cccc(C(=O)Nc3cc4sc(N5CCOCC5)nc4nc3C3CC3)n2)cn1 [Example 51, 6′-amino-N-(5-cyclopropyl-2-morpholinothiazolo[4,5-b]pyridin-6-yl)-[2,3′-bipyridine]-6-carboxamide] | 98 |  |
| Nc1cccc(-c2nc(C(=O)Nc3cc4sc(N5CCOCC5)nc4nc3N3CCCCC3)co2)n1 [Example 11, 2-(6-aminopyridin-2-yl)-N-(2-morpholino-5-(piperidin-1-yl)thiazolo[4,5-b]pyridin-6-yl)oxazole-4-carboxamide hydrochloride] | 99 | 98 |
| Nc1cc(-c2cccc(C(=O)Nc3cc4sc(N5CCOCC5)nc4nc3N3CCCCC3)n2)ccn1 [Example 83, 2′-amino-N-(2-morpholino-5-(piperidin-1-yl)thiazolo[4,5-b]pyridin-6-yl)-[2,4′-bipyridine]-6-carboxamide] | 99 | 98 |
| O=C(Nc1cc2sc(N3CCOCC3)nc2nc1N1CCCCC1)c1cccc(-n2cc(CO)cn2)n1 [Example 69, 6-(4-(hydroxymethyl)-1H-pyrazol-1-yl)-N-(2-morpholino-5-(piperidin-1-yl)thiazolo[4,5-b]pyridin-6-yl)picolinamide] | 98 | 99 |
| O=C(Nc1cc2sc(N3CCOCC3)nc2nc1C1CC1)c1cnn2ccc(N3CCC[C@H](O)C3)nc12 [Example 100, (S)-N-(5-cyclopropyl-2-morpholinothiazolo[4,5-b]pyridin-6-yl)-5-(3-hydroxypiperidin-1-yl)pyrazolo[1,5-a]pyrimidine-3-carboxamide] | 96 | 99 |
| COC1CCN(c2cccc(C(=O)Nc3cc4sc(N5CCOCC5)nc4nc3N3CCCCC3)n2)CC1 [Example 31, 6-(4-methoxypiperidin-1-yl)-N-(2-morpholino-5-(piperidin-1-yl)thiazolo[4,5-b]pyridin-6-yl)picolinamide] | 90 | 98 |
| NC1CCCN(c2ccn3ncc(C(=O)Nc4cc5sc(N6CCOCC6)nc5nc4N4CC[C@@H](O)C4)c3n2)C1 (stereo partly drawn) [Example 102, 5-(3-aminopiperidin-1-yl)-N-(5-((R)-3-hydroxypyrrolidin-1-yl)-2-morpholinothiazolo[4,5-b]pyridin-6-yl)pyrazolo[1,5-a]pyrimidine-3-carboxamide hydrochloride] | 21 | 56 |
| Cc1ccc(-c2nc3nc(N4CCOCC4)sc3cc2NC(=O)c2cnn3cccnc23)nc1 [Example 20, N-(5-(5-methylpyridin-2-yl)-2-morpholinothiazolo[4,5-b]pyridin-6-yl)pyrazolo[1,5-a]pyrimidine-3-carboxamide] | 97 | 98 |
| O=C(Nc1cc2sc(N3CCOCC3)nc2nc1C1CC1)c1cncc(N2CCC(O)C2)n1 (stereo not drawn) [Example 50, N-(5-cyclopropyl-2-morpholinothiazolo[4,5-b]pyridin-6-yl)-6-(3-hydroxypyrrolidin-1-yl)pyrazine-2-carboxamide] | 67 | 95 |
| O=C(Nc1cc2sc(N3CCOCC3)nc2nc1N1CCC(O)(CO)CC1)c1cccc(N2CC[C@H](O)C2)n1 [Example 8, (S)-N-(5-(4-hydroxy-4-(hydroxymethyl)piperidin-1-yl)-2-morpholinothiazolo[4,5-b]pyridin-6-yl)-6-(3-hydroxypyrrolidin-1-yl)picolinamide hydrochloride] | 97 | 98 |
| Cc1cc(-c2nc(C(=O)Nc3cc4sc(N5CCOCC5)nc4nc3OC3CCC(N4CCOCC4)CC3)co2)ccn1 (stereo not drawn) [Example 6, 2-(2-methylpyridin-4-yl)-N-(2-morpholino-5-(((1r,4r)-4-morpholinocyclohexyl)oxy)thiazolo[4,5-b]pyridin-6-yl)oxazole-4-carboxamide hydrochloride] | 100 | 100 |
| Cc1cc(-c2nc(C(=O)Nc3cc4oc(N5CCOCC5)nc4nc3N3CC(C)(C)CC3=O)co2)ccn1 [Example 86, N-(5-(4,4-dimethyl-2-oxopyrrolidin-1-yl)-2-morpholinooxazolo[4,5-b]pyridin-6-yl)-2-(2-methylpyridin-4-yl)oxazole-4-carboxamide] | 65 | 57 |
